Laboratory results published in paper PMC8537327, “EGFR-Targeted Pentacyclic Triterpene Analogues for Glioma Therapy” (International Journal of Molecular Sciences, 2021).

Assays:
U251 cells = assay: Annexin V/ethidium homodimer III staining, apoptotic/necrotic cell detection; format: cell-based, human; settings: 24 h; IC50 concentration (Figure 4 legend), 5 μM (method)
Method: U251 cells (4 × 10^4 cells/well) were seeded in each well of a 24-well plate with compound 10 and cisplatin at 5 μM concentration for 24 h. Then, the apoptotic/necrotic/healthy cells detection kit protocol was applied according to the manufacturer’s instructions (PromoKine, Heidelberg, Germany) with few modifications. Briefly, the cells were washed twice with 1 × binding buffer and then treated with FITC-Annexin V (5 μL), ethidium homodimer III (5 μL), and Hoechst 33342 (5 μL) for 20 min at room temperature in a protected-light environment. After washing in 1 × binding buffer, cells were analyzed under an all-in-one fluorescence microscope Biorevo Fluorescence BZ-9000 (Keyence, Osaka, Japan). Healthy cells, apoptotic cells, late apoptotic or necrotic cells, and necrotic cells were counted as previously described.

[1] = test system: U251 human glioblastoma cells; assay: MTT cytotoxicity assay, U251 cells; format: cell-based; settings: for IC50: MTT, 72 h; for anticancer activity against U251 cells: at 100 µM concentration
Method: (§1) U251, T98G (Japanese Collection of Research Bioresources Cell Bank), and U87 human glioblastoma cell lines were incubated in Dulbecco’s Modified Eagle Medium (DMEM)/Ham’s F12 (Wako Pure Chemical Industries, Osaka, Japan), Eagle’s Minimum Essential Medium (EMEM; Wako Pure Chemical Industries, Osaka, Japan), and DMEM (Gibco/Thermo Fisher Scientific, Waltham, MA, USA) respectively, and supplemented with 10% fetal bovine serum (FBS; Sigma Aldrich, MO, USA). Jurkat human leukemic T-cell line was cultured in Roswell Park Memorial Institute (RPMI) 1640 (Wako Pure Chemical Industries, Osaka, Japan), supplemented with 10% FBS. PBMCs (Precision Bioservices, Frederick, MD, USA) were incubated in RPMI 1640 and supplemented with 10% human serum AB (HS) (Gemini, Woodland, CA, USA). All media were supplemented with 89 μg/mL streptomycin (Meiji Seika Pharma, Tokyo, Japan) at 37 °C in a humid atmosphere and 5% CO2. For each experiment, growing cells were plated at 4 × 10^4 cells/mL and 6 × 10^5 cells/mL into 24-well and 96-well microtiter tissue culture plates (Iwaki brand Asahi Glass Co., Chiba, Japan) respectively and incubated for 72 h before the addition of the drugs (the optimal cell number for cytotoxicity assays was determined in preliminary experiments). The stock solutions of the compounds and cisplatin (Sigma-Aldrich, St. Louis, MO, USA) in concentrations between 0.1–10 mM were prepared in dimethyl sulfoxide (DMSO; Wako Pure Chemical Industries, Osaka, Japan) and in H2O respectively, then were added to fresh culture medium. The concentration of DMSO and H2O in the final culture medium was 1% which had no effect on the cell viability.
(§2) The MTT (Dojindo Molecular Technologies, Kumamoto, Japan) assay was carried out using the U251, T98G, U87, Jurkat, and PBMC cells to determine the cytotoxicity of compounds 1–13 and cisplatin as previously described in the literature with small modifications. Treated cells were incubated with different concentrations (1–100 µM) of the compounds for 72 h at 37 °C in the CO2 incubator. About 100 µL (1.1 mg/mL) of MTT solution was added to each well and after further incubation for 4 h, formazan crystals formed. At the end of this period, the medium was removed and the formazan crystals were solubilized by the addition of 100 μL DMSO to each well. The absorbance was read on an Infinite M1000 plate reader (Tecan, Mannedorf, Switzerland) at a wavelength of 550 nm with background subtraction at 630 nm. All experiments were performed in triplicate and IC50 values were defined as the drug concentrations that reduced absorbance to 50% of control values.

[2] = test system: T98G human glioblastoma cells; assay: MTT cytotoxicity assay, T98G cells; format: cell-based; settings: for IC50: MTT, 72 h; for anticancer activity against T98G cells: at 100 µM concentration
Method: as §1, §2

[3] = test system: human peripheral blood mononuclear cells (PBMCs); assay: MTT cytotoxicity assay, PBMCs; format: cell-based; settings: 72 h
Method: as §1, §2

[4] = test system: Jurkat human leukemic T-cells; assay: MTT cytotoxicity assay, Jurkat cells; format: cell-based; settings: for IC50: MTT, 72 h; for SI (selectivity index): SI = IC50 for PBMCs/IC50 for Jurkat cells
Method: as §1, §2

[5] = test system: U87 human glioblastoma cells; assay: MTT cytotoxicity assay, U87 cells; format: cell-based; settings: for IC50: MTT, 72 h; for anticancer activity against U87 cells: at 100 µM concentration
Method: as §1, §2

ABL1 kinase = molecular target: ABL1 kinase; set-up: method as in PMID 31574910; settings: previously reported by the authors; read-out: ABL1 kinase inhibition IC50; cited from earlier work
K562 CML cell line = test system: K562 CML cell line; set-up: method as in PMID 31574910; settings: previously reported by the authors; read-out: IC50, cytotoxic activity against K562 CML cell line; cited from earlier work
K562 cells = test system: K562 cells; set-up: method as in PMID 31574910; settings: previously reported by the authors; cited from earlier work
IGF1R = molecular target: T1, IGF1R (Homo sapiens, UniProt P08069); assay: Kinase profiling assay (ADP-Glo), IGF1R; format: biochemical; settings: 30 µM concentration
T1 construct: purchased Promega Corporation
Method: (§3) The kinase profiling assay protocol (TK1 and TK-2) was applied according to the manufacturer‘s instructions (Promega Corporation, Madison, WI, USA) with few modifications. In regard to this protocol, the EGFR, HER2, HER4, IGF1R, InsR, KDR, PDGFR-α, PDGFR-β, ABL1, BRK, BTK, CSK, FYN A, LCK, LYN B, and SRC kinase stocks in the kinase strips were diluted with 95 µL 2.5x kinase buffer and their substrate stock in the substrate strip was diluted with 15 µL of 100 µM ATP solutions. Then, the kinase reactions were performed using 2 µL of the kinase working stocks, 2 µL of the ATP/substrate working stocks, and 1 µL of compound solution (0.1–100 µM) or 5% DMSO solution in the 384-well plate. After 4 h of incubation at room temperature, the activity of kinases was detected using ADP-Glo Kinase Assay (Promega Corporation, Madison, WI, USA) according to the manufacturer‘s protocol. Briefly, 5 µL of ADP-Glo reagent was added into each well of 384-well plate and the mixture was incubated at room temperature for 40 min to stop the kinase reaction and deplete any ATP remaining. Then, 10 µL Kinase Detection Reagent was added and the mixture was incubated for a further 30 min to convert the kinase-produced ADP to ATP, and then to light. […]

HER2 = molecular target: T2, HER2 (Homo sapiens, UniProt P04626); assay: Kinase profiling assay (ADP-Glo), HER2; format: biochemical; settings: 30 µM concentration
T2 construct: purchased Promega Corporation
T2 sequence (P04626 23-1255): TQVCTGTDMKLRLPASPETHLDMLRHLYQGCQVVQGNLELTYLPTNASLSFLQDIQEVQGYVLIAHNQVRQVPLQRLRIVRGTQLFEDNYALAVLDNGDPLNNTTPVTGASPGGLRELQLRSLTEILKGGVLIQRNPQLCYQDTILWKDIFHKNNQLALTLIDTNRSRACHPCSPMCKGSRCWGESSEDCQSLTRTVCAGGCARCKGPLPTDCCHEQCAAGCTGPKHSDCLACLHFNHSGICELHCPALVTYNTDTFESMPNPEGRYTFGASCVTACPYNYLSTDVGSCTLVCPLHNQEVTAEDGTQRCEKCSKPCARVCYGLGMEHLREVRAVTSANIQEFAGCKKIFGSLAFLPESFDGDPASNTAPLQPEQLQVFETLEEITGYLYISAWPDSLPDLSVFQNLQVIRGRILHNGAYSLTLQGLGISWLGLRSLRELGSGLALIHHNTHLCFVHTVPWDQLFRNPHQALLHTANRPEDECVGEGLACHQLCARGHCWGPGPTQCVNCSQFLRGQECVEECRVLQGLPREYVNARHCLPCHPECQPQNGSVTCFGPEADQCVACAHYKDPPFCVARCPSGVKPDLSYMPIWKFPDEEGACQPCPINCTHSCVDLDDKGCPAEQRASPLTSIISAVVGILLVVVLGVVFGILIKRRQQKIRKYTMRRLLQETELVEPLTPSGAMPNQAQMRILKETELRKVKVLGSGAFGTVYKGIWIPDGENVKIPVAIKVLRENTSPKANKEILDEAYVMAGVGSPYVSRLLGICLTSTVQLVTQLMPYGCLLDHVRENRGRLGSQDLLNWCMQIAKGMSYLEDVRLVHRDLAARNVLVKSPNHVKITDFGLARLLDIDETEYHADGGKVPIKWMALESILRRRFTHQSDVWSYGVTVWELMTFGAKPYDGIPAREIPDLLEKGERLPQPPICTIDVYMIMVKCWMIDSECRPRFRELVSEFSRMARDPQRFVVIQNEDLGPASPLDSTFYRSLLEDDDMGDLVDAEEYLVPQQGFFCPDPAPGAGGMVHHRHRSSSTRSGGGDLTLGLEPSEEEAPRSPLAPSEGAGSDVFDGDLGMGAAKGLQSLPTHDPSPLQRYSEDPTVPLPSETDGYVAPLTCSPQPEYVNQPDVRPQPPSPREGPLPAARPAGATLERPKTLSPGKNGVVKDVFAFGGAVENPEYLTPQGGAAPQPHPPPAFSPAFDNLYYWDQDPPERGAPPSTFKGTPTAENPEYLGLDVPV
Method: as §3

EGFR = molecular target: T3, EGFR (Homo sapiens, UniProt P00533); assay: Kinase inhibition assay (ADP-Glo), EGFR; format: biochemical
T3 construct: purchased Promega Corporation
T3 sequence (P00533 25-1210): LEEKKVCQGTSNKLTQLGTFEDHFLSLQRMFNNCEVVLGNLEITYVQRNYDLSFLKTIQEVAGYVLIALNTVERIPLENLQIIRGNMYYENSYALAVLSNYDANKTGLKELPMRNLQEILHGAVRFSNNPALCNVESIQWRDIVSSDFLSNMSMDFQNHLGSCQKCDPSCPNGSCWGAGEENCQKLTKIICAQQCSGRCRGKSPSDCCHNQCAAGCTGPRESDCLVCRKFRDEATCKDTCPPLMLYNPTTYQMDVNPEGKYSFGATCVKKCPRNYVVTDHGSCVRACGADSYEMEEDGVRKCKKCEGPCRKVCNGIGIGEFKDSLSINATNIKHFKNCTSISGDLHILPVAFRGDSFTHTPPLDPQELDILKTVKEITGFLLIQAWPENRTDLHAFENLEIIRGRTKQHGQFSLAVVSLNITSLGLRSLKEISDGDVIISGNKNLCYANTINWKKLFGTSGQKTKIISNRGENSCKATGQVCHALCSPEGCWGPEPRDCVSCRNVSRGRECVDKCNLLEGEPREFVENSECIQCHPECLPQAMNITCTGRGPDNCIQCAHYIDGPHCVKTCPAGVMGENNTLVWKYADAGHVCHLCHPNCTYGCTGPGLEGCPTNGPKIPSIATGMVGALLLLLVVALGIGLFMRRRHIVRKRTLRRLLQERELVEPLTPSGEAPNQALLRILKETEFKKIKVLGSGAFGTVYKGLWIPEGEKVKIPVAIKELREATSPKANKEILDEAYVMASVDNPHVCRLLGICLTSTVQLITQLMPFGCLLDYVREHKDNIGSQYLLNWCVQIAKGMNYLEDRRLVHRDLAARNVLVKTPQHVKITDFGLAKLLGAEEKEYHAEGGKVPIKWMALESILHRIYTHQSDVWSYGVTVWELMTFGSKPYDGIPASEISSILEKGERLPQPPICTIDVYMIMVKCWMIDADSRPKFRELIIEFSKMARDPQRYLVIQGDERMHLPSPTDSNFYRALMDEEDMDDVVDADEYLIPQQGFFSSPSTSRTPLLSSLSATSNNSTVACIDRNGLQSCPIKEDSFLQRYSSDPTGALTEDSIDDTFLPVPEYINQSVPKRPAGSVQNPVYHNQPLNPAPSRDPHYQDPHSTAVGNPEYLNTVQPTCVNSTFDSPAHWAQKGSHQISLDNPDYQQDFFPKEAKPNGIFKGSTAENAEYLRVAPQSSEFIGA
Method: The kinase profiling assay protocol (TK1 and TK-2) was applied according to the manufacturer‘s instructions (Promega Corporation, Madison, WI, USA) with few modifications. In regard to this protocol, the EGFR, HER2, HER4, IGF1R, InsR, KDR, PDGFR-α, PDGFR-β, ABL1, BRK, BTK, CSK, FYN A, LCK, LYN B, and SRC kinase stocks in the kinase strips were diluted with 95 µL 2.5x kinase buffer and their substrate stock in the substrate strip was diluted with 15 µL of 100 µM ATP solutions. Then, the kinase reactions were performed using 2 µL of the kinase working stocks, 2 µL of the ATP/substrate working stocks, and 1 µL of compound solution (0.1–100 µM) or 5% DMSO solution in the 384-well plate. After 4 h of incubation at room temperature, the activity of kinases was detected using ADP-Glo Kinase Assay (Promega Corporation, Madison, WI, USA) according to the manufacturer‘s protocol. Briefly, 5 µL of ADP-Glo reagent was added into each well of 384-well plate and the mixture was incubated at room temperature for 40 min to stop the kinase reaction and deplete any ATP remaining. Then, 10 µL Kinase Detection Reagent was added and the mixture was incubated for a further 30 min to convert the kinase-produced ADP to ATP, and then to light.

FYN A = molecular target: T4, FYN A (Homo sapiens, UniProt P06241); assay: Kinase profiling assay (ADP-Glo), FYN A; format: biochemical; settings: 30 µM concentration
T4 construct: purchased Promega Corporation
T4 sequence (P06241 whole entry): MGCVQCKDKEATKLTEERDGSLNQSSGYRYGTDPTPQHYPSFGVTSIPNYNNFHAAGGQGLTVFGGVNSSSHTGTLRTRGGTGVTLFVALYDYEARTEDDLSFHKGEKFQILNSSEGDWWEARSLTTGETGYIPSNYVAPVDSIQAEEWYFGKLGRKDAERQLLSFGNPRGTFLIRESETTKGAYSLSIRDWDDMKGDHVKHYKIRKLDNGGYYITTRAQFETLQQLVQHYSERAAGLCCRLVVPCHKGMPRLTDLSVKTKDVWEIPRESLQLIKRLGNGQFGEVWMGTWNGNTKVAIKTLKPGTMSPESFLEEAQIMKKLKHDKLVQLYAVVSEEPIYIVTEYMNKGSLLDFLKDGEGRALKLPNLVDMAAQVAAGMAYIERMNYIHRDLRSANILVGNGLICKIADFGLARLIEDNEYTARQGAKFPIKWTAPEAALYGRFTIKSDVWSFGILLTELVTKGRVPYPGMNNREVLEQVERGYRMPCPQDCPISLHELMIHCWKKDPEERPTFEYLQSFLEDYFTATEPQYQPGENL
Method: as §3

BTK = molecular target: T5, BTK (Homo sapiens, UniProt Q06187); assay: Kinase profiling assay (ADP-Glo), BTK; format: biochemical; settings: 30 µM concentration
T5 construct: purchased Promega Corporation
Method: as §3

ABL1 = molecular target: T6, ABL1 (Homo sapiens, UniProt P00519); assay: Kinase profiling assay (ADP-Glo), ABL1; format: biochemical; settings: 30 µM concentration
T6 construct: purchased Promega Corporation
T6 sequence (P00519 whole entry): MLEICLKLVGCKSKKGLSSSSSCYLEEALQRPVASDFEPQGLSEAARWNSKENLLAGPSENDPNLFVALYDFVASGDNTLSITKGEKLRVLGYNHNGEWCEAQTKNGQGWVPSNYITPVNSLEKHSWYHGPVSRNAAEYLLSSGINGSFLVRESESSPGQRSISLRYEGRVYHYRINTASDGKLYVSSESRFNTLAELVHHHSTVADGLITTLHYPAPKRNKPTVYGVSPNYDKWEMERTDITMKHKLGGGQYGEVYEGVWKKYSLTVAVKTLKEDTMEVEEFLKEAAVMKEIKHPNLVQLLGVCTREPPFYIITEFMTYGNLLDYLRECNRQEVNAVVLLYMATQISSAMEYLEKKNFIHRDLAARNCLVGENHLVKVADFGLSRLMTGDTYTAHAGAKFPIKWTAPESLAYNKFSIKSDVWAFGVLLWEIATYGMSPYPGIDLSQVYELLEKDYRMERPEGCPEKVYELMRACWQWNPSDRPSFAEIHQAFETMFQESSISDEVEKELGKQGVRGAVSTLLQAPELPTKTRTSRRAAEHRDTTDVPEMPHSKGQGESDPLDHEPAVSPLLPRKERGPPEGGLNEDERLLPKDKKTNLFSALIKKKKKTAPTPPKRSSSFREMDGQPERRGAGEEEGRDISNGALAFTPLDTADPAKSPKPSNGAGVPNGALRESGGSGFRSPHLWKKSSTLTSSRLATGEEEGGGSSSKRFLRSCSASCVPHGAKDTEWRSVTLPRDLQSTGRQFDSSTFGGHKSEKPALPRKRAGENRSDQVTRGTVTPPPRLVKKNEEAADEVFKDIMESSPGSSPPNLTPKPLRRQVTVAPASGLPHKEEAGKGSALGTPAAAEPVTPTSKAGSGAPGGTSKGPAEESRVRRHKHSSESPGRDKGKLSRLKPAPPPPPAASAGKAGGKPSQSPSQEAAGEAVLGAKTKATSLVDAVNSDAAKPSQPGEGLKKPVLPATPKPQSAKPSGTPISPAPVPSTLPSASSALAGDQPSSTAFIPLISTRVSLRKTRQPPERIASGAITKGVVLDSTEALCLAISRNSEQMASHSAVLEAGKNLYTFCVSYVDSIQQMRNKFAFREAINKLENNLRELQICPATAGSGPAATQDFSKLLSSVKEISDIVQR
Method: as §3

HER4 = molecular target: T7, HER4 (Homo sapiens, UniProt Q15303); assay: Kinase profiling assay (ADP-Glo), HER4; format: biochemical; settings: 30 µM concentration
T7 construct: purchased Promega Corporation
Method: as §3

SRC = molecular target: T8, SRC (Homo sapiens, UniProt P12931); assay: Kinase profiling assay (ADP-Glo), SRC; format: biochemical; settings: 30 µM concentration
T8 construct: purchased Promega Corporation
T8 sequence (P12931 whole entry): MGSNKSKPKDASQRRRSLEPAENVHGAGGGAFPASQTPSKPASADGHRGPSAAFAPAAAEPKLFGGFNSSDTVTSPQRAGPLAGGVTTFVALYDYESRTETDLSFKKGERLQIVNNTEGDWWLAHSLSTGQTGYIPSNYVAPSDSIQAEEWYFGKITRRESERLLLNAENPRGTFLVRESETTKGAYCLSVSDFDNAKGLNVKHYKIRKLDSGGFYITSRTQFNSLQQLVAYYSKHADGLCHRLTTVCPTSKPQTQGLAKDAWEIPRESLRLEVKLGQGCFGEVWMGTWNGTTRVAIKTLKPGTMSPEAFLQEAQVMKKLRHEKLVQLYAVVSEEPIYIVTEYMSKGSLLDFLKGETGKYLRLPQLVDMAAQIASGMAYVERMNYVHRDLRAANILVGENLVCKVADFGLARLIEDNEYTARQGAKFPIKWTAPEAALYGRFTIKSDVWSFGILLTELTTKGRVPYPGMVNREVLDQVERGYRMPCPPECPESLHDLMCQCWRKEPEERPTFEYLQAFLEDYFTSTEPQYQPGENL
Method: as §3

BRK = molecular target: T9, BRK (Homo sapiens, UniProt Q13882); assay: Kinase profiling assay (ADP-Glo), BRK; format: biochemical; settings: 30 µM concentration
T9 construct: purchased Promega Corporation
T9 sequence (Q13882 whole entry): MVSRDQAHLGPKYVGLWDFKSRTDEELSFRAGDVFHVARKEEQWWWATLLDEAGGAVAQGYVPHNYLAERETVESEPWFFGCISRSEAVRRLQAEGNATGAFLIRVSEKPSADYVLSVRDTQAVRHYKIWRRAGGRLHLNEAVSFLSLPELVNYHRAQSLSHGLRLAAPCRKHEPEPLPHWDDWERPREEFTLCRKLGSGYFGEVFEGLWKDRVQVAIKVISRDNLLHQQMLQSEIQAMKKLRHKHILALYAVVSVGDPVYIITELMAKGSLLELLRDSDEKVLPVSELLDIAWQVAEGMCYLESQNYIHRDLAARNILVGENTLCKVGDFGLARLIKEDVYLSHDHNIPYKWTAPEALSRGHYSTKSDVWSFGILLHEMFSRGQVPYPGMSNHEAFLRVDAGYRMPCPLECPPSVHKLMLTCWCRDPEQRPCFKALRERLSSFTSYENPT
Method: as §3

LYN B = molecular target: T10, LYN B (Homo sapiens, UniProt P07948); assay: Kinase profiling assay (ADP-Glo), LYN B; format: biochemical; settings: 30 µM concentration
T10 construct: purchased Promega Corporation
Method: as §3

Row | HER2 inhibition (HER2) | FYN A inhibition (FYN A) | ABL1 inhibition (ABL1) | Compound | apoptosis in U251 cells (U251 cells) [%] | SI (selectivity index) [4] | IC50 (K562 CML cell line) [µM] | IC50 ([1]; Homo sapiens, U-251) [µM] | anticancer activity against U251 cells [1] | IC50 ([2]; Homo sapiens, T98G) [µM] | anticancer activity against T98G cells [2] | IC50 ([5]; Homo sapiens, U-87 MG) [µM] | anticancer activity against U87 cells [5] | further results
1 |  |  |  | N.N.[Cl][Pt][Cl] [Cisplatin, cisplatin, reference compound] | 13.83 | 7.12 |  |  |  |  |  |  |  | IC50 [1]: 7.7 ± 2.81 µM; IC50 [2]: 16.9 ± 3.95 µM; IC50 [3]: 34.7 ± 7.11 µM; IC50 [4]: 4.87 ± 2 µM; IC50 [5]: 20.9 ± 5.16 µM
2 |  |  |  | CC1(C)CC[C@]2(C(=O)OCc3ccccc3)CC[C@]3(C)C(=CC[C@@H]4[C@@]5(C)CC[C@H](O)C(C)(C)[C@@H]5CC[C@]43C)[C@@H]2C1 [Compound 5] |  |  | 5.46 | > 100 | no significant anticancer activity | > 100 | no significant anticancer activity | > 100 | no significant anticancer activity | IC50 (ABL1 kinase): 1.44 µM
3 |  |  |  | CC1(C)CC[C@]2(C(=O)OCc3cc(C(F)(F)F)cc(C(F)(F)F)c3)CC[C@]3(C)C(=CC[C@@H]4[C@@]5(C)CC[C@H](O)[C@@](C)(C=O)[C@@H]5CC[C@]43C)[C@@H]2C1 [Compound 8] |  |  | 4.78 | > 100 | no significant anticancer activity | > 100 | no significant anticancer activity | > 100 | no significant anticancer activity | apoptosis in K562 cells (K562 cells): 24%
4 |  |  |  | CC1(C)CC[C@]2(C(=O)OCc3ccc(C#N)cc3)CC[C@]3(C)C(=CC[C@@H]4[C@@]5(C)CC[C@H](O)[C@@](C)(C=O)[C@@H]5CC[C@]43C)[C@@H]2C1 [Compound 9] |  |  | 3.19 | 14.1 ± 3.41 |  | 56.6 ± 6.08 |  | > 100 |  | 
5 | moderate | moderate | moderate | C[C@@H](NCC1(C)C(O)CCC2(C)C1CCC1(C)C2CC=C2C3CC(C)(C)CCC3(C(=O)O)CCC21C)c1ccccc1 (stereo partly drawn) [Compound 10, 10-Hydroxy-2,2,6a,6b,9,12a-hexamethyl-9-[(((R)-1-phenylethyl)amino)methyl]-1,2,3,4,4a,5,6,6a,6b,7,8,8a,9,10,11,12,12a,12b,13,14b-icosahydropicene-4a-carboxylic acid] | 10.29 | 7.90 |  | 5.82 ± 1.66 |  | 8.19 ± 2.42 |  | 17 ± 4.92 |  | IGF1R inhibition (IGF1R): no significant inhibition; melting point: 240 to 243 °C; EGFR inhibition relative to InsR inhibition (EGFR; 30 µM concentration, stronger inhibition of EGFR than InsR): approximately 2 fold; IC50 (EGFR; ADP-Glo kinase assay): 9.43 µM; BTK inhibition (BTK): no significant inhibition; HER4 inhibition (HER4): no significant inhibition; SRC inhibition (SRC): no significant inhibition; BRK inhibition (BRK): no significant inhibition; IC50 ([3]; Homo sapiens, PBMC): 28.1 ± 5.05 µM; LYN B inhibition (LYN B): no significant inhibition; IC50 ([4]; Homo sapiens, Jurkat): 3.56 ± 1.45 µM
6 | moderate | moderate | moderate | C#Cc1cccc(Nc2ncnc3cc(OCCOC)c(OCCOC)cc23)c1 [erlotinib, reference compound] |  |  |  |  |  |  |  |  |  | 
